Results reported in patent US20250170252A1, “QUINONE PROTECTED FORMS AND CONJUGATES” (CAMBRIDGE ENTERPRISE LIMITED, priority 2022, published 2025).

Experiments:
range of cell lines = assay: Toxicity of Gluc-PHB-BL against a range of cell lines with and without added β-glucuronidase; format: cell-based; details: control tests
Method: (§1) Assays assessing cytotoxicity of β-lapachone and derivatives were performed by CellTiter-Blue assay (Promega) according to the manufacturer's instructions. Briefly, adherent cancer-cell lines were plated at 20,000 cells/well in 96 well plates or suspension cell lines were plated at a concentration of 2×10^5 cells/mL in 24 well plates. Compound stocks in media were made by dilution of DMSO stocks containing the compound of interest to obtain a final in-plate DMSO concentration of only 0.1%. Incubation was performed for 48 h. Following incubation, media was replaced with media containing CellTiter-Blue (Promega) in 1:10 dilution and the plates were incubated for 1.5-4 h. The fluorescence of the plates was recorded (excitation 555 nm, emission 585 nm, MiniMax i3x Reader, Molecular Devices).
(§2) Cell viability was calculated by division of the fluorescence intensity of treated wells by that of the calculated average fluorescence intensity of replicate negative control wells containing cells with 0.1% DMSO only. Values and reported error bars represent the mean and standard error of the mean of three triplicate repeats for each concentration tested. IC50 values were calculated using GraphPad Prism 8 software.
(§3) The potential of compound 37a, glucuronide-PHB-BL, as a prodrug was investigated. As discussed above, at physiological pH the compound has a relatively slow-release rate. Toxicity of Gluc-PHB-BL 37a was tested against a range of cell lines with and without added β-glucuronidase. Addition of the enzyme mimics conditions of the solid tumour environment.

[1] = tested on: MCF-7 (breast cancer cell line); assay: Viability assay (CellTiter-Blue), MCF-7; format: cell-based; details: Homo sapiens, MCF7
[2] = tested on: Aspc-1 pancreatic cancer cell line; assay: CellTiter Glo viability assay, Aspc-1; format: cell-based; details: Homo sapiens, ASPC1; Aspc-1, β-lapachone alone, 48 hours; read-out: IC50
Method: For CellTiter Glo viability assays, 10,000 cells per well were plated on Day 1 and were allowed to adhere to the plate surface for 24 hours. Optimized concentration ranges of prodrugs were determined and made via serial dilution. […] Cells were incubated with compound for 48 hours and viability was assessed on Day 4 using the CellTiter Glo Viability assay which measures metabolically active cells by quantifying the amount of ATP present.
Panc-1 cells were obtained from Tony Kouzarides' lab in the Gurdon Institute at the University of Cambridge and put into culture at passage 10 containing DMEM media (Gibco) supplemented with 1% Pen-Strep antibiotic (Gibco), 1% L-glutamine, and 10% fetal bovine serum (FBS, sterile-filtered). Aspc-1 cells were bought commercially from the American Type Culture Collection (ATCC) and put into culture containing RPMI 1640 media (Gibco) supplemented with 1% Pen-Strep antibiotic (Gibco), 1% L-glutamine, and 20% fetal bovine serum (FBS, sterile-filtered). All cell lines were started at passage 10 and passaged every 3 days by centrifuging at 1000 rpm for 4 minutes.

5-LO = molecular target: T1, 5-LO (Homo sapiens, UniProt P09917); details: previous work, Chem. Sci. 2018; cited from earlier work
T1 sequence (P09917 1-674): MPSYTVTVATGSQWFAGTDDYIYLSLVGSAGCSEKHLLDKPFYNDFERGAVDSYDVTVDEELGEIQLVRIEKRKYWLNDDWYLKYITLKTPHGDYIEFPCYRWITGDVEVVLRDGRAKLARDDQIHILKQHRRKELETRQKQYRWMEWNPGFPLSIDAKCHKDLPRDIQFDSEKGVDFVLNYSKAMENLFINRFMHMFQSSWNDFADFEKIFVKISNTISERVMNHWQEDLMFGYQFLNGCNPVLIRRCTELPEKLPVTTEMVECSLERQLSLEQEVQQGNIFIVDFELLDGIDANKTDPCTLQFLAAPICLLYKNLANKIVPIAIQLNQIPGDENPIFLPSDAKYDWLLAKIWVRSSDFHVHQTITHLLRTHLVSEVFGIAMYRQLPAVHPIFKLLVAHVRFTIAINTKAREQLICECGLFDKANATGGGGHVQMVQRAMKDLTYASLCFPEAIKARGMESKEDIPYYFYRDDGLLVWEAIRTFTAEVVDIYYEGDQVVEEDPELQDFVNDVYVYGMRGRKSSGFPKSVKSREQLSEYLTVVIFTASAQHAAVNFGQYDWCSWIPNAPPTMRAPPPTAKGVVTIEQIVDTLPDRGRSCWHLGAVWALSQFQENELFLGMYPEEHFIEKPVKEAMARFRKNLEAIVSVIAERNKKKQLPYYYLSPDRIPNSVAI

MOLM-13 = assay: Toxicity with/without β-glucuronidase, MOLM-13; format: cell-based; details: Homo sapiens, MOLM-13; read-out: IC50 β-lapachone, 1
Method: as §1, §2, §3

HeLa = assay: Toxicity with/without β-glucuronidase, HeLa; format: cell-based; details: Homo sapiens, read-out: IC50 β-lapachone, 1
Method: as §1, §2, §3

HEK-293T = assay: Toxicity with/without β-glucuronidase, HEK-293T; format: cell-based; details: Homo sapiens, read-out: IC50 β-lapachone, 1
Method: as §1, §2, §3

[3] = In vitro redox-cycling ability, phenol red/horseradish peroxidase assay; format: biochemical; details: HRP/phenol-red reporter assay, absorbance at 610 nm; up to 25 μM
Method: In vitro redox cycling capability of compounds was assessed by phenol red/horseradish peroxidase (HRP) assay by adaption of a previously described protocol (Assay Drug Dev. Technol., 2008, 6, 505-518). Briefly, stocks were prepared as follows: (1) DTT to a concentration of 2.4 μM in PBS pH 7.4 buffer; (2) compound stocks in PBS pH 7.4 buffer to 3× the desired concentration by 1000× dilution of DMSO stocks; (3) a stock of phenol-red-HRP detection reagent containing 300 μg/mL phenol red and 180 μg/mL HRP enzyme in PBS pH 7.4 buffer; (4) a stock of 1 M NaOH in water; (5) a stock of 100 μM H2O2 in PBS prepared by addition of a 30% solution of H2O2 in water into 1000 μL of PBS. Into each well of a 96 well clear flat-bottomed plate was then added 40 μL of compound stock in PBS followed by 40 μL of DTT stock, followed immediately by 40 μL of phenol-red-HRP reagent. A positive control with 100 μM H2O2 added in place of compound was included. The plate was incubated in the dark at room temperature for 15 min. Following this 20 μL of 1 M NaOH was added to each well to terminate the reaction. Absorbance was immediately measured at 610 nm (MiniMax i3x Imager, Molecular Devices). Absorbance of treated wells was normalised to control wells treated with PBS only (zero redox cycling). All readings were performed in triplicate and error bars display standard error of the mean.

CC1(C)CCC2=C(O1)c1ccccc1C(=O)C2=O [Compound 1, β-lapachone, reference compound]
effect of β-glucuronidase addition on toxicity (range of cell lines): not significantly affected
IC50 [1]: 1.9 µM
IC50 [2]: 7.66 µM
inhibition of 5-LO (5-LO): strongly inhibits
IC50 (MOLM-13): 12.1 µM
IC50 (HeLa): 4.26 µM
IC50 (HEK-293T): 2.91 µM
redox activity (in vitro redox-cycling capability) [3]: saturates the assay above 10 μM concentration
